In patent US20060121480A1, “Synergistic compositions for the prevention and treatment of acquired immunodeficiency syndrome” (priority 2002, published 2006):
Where two headings read alike, the source gives them in different places.

What was measured:
[1] = test system: HIV-1 301714 (adult); experiment: HIV-1 P24 antigen in PBMC coculture, drug exposure at infection and for 12 hours thereafter; assay type: cell-based
Experimental: (§1) Viruses: 6 viruses were titrated. The TCID50/ml of each virus isolate was as the follows:
(§2) 512.2 μl of HIV-1 302076 was added into 9487.8 μl R-3 medium. 512.2 μl of HIV-1 302077 was added into 9487.8 μl R-3 medium. 126.3 μl of HIV-1 302143 was added into 9873.7 μl R-3 medium. 1002.4 μl of HIV-1 301714 was added into 8997.6 R-3 medium. 2000 μl of HIV-1m 2054 was added into 8000.0 μl R-3 medium. 4000 μl of HTLV-IIIB was added into 6000 R-3 μl medium. Viruses were diluted to 100 TCID50 virus stock: 2.5 ml of 2000 TCID50/ml was added to 2.5 ml of R-3 medium, this is 100 TCID50 (in 100 μl) stock. PBMC: Peripheral blood mononuclear cells (PBMC) were separated from HI-1-uninfected donor by Ficoll-hypaque density gradient centrifugation. PBMC were grown in RPMI 1640 supplemented with 20% fetal calf serum, 5% IL-2 and 5 μg/ml PHA (R-3 medium).
(§3) The above step was repeated for 1:156.25, 781.25, 3906.25 and 19531.25 dilutions. Finally, the concentrations used in the experiment were 2, 0.4, 0.08, 0.016, 0.0032, 0.00064 μg/ml.
(§4) The above step was repeated for 1:625, 1:3125, 1:15625, 1:78125 and 390625 dilution. Finally, the concentrations used in the experiment were 1.
(§5) The final 3 tubes are added with 100 μPBS. […] The tubes were incubated at 37° C. overnight.
(§6) The cells were washed 3 times in PBS.

[2] = test system: HIV-1 2054 (adult); experiment: as above; assay type: cell-based
Experimental: as §1, §2, §3, §4, §5, §6

[3] = test system: HTLV-IIIB (lab); conditions: PBMC
Experimental: (§7) Viruses: 6 viruses were titrated.
as §2
(§8) The final three tubes are added to 100 μl PBS. […] The final 3 tubes are added with 100 μPBS. […] The final 3 tubes are added to 100 μl PBS. 100 μl of 100 TCID50 virus stock were aliquoted into all 63 tubes. 2×10^6 PBMC was added in 1.8 ml of R-3 medium (total 2.0 ml per tube). The tubes were incubated at 37° C. overnight.
(§9) The cells were washed 3 times in PBS. […] HIV-1 P24 antigen measurement was performed in the supernatant of each coculture well on days 4 and 7.0.5 ml cells (10^6/ml) in R-3 medium were added on day 4.

[4] = test system: HIV-1 301714 (adult); experiment: HIV-1 P24 antigen in PBMC coculture, continuous drug exposure; assay type: cell-based
Experimental: as §1, §2, §5, §6

[5] = test system: HIV-1 2054 (adult); experiment: as above; assay type: cell-based
Experimental: as §1, §2, §5, §6

[6] = test system: HIV-1 302143 (pediatric); conditions: PBMC
Experimental: as §7, §2, §8, §9

[7] = test system: HIV-1 302077 (pediatric); conditions: PBMC
Experimental: as §7, §2, §8, §9

[8] = test system: HIV-1 302076 (pediatric); conditions: PBMC
Experimental: as §7, §2, §8, §9

[9] = test system: HIV-1 302143 (pediatric); conditions: PBMC; remark: listed apart in the source
Experimental: as §7, §2, §3
(§10) The above step was repeated for 1:625, 1:3125, 1:15625, 1:78125 and 390625 dilution. Finally, the concentrations used in the experiment were 1. 0.2.0.04, 0.008, 0.0016, 0.00032 μg/ml.
as §8, §9

[10] = test system: HIV-1 302077 (pediatric); conditions: PBMC; remark: listed apart in the source
Experimental: as §7, §2, §3, §10, §8, §9

[11] = test system: HTLV-IIIB (lab); conditions: PBMC; remark: listed apart in the source
Experimental: as §7, §2, §3, §10, §8, §9

[12] = test system: HIV-1 302076 (pediatric); conditions: PBMC; remark: listed apart in the source
Experimental: as §7, §2, §3, §10, §8, §9

[13] = HIV-1 301714, day 4, drugs removed after 12 hours
[14] = HIV-1 301714, day 7, drugs removed after 12 hours
[15] = HIV-1 2054, day 4, drugs removed after 12 hours
[16] = HIV-1 2054, day 7, drugs removed after 12 hours
[17] = day 4, continuous drug exposure
[18] = day 7, continuous drug exposure
[19] = HIV-1 301714, day 4, continuous drug exposure
[20] = HIV-1 301714, day 7, continuous drug exposure
[21] = HIV-1 2054, day 4, continuous drug exposure
[22] = HIV-1 2054, day 7, continuous drug exposure

Substance	IC50 [1, 13]	IC50 [1, 14]	IC50 [2, 15]	IC50 [2, 16]	IC50 [3, 17]	IC50 [3, 18]	IC50 [4, 19]	IC50 [4, 20]	IC50 [5, 21]	IC50 [5, 22]	other results
enfuvirtide	0.20 µg/mL	0.050 µg/mL	0.039 µg/mL	0.11 µg/mL	0.017 µg/mL	0.013 µg/mL	0.049 µg/mL	0.040 µg/mL	0.019 µg/mL	0.16 µg/mL	
5A8: humanized monoclonal antibody to CD4	0.70 µg/mL	1.82 µg/mL	0.070 µg/mL	0.13 µg/mL	0.19 µg/mL	0.16 µg/mL	0.14 µg/mL	0.30 µg/mL	0.041 µg/mL	0.017 µg/mL	IC50 ([6]; HIV-1 302143, day 4, continuous drug exposure): 0.038 µg/mL; IC50 ([6]; HIV-1 302143, day 7, continuous drug exposure): 0.022 µg/mL; IC50 ([7]; HIV-1 302077, day 4, continuous drug exposure): 0.14 µg/mL; IC50 ([7]; HIV-1 302077, day 7, continuous drug exposure): 0.067 µg/mL; IC50 ([8]; HIV-1 302076, day 4, continuous drug exposure): 0.10 µg/mL; IC50 ([8]; HIV-1 302076, day 7, continuous drug exposure): 0.028 µg/mL; IC50 ([9]; HIV-1 302143, day 4, drugs removed after 12 hours): 0.97 µg/mL; IC50 ([9]; HIV-1 302143, day 7, drugs removed after 12 hours): >2.0 µg/mL; IC50 ([10]; HIV-1 302077, day 4, drugs removed after 12 hours): 0.17 µg/mL; IC50 ([10]; HIV-1 302077, day 7, drugs removed after 12 hours): 0.50 µg/mL; IC50 ([11]; day 4, drugs removed after 12 hours): 0.44 µg/mL; IC50 ([11]; day 7, drugs removed after 12 hours): 1.30 µg/mL; IC50 ([12]; HIV-1 302076, day 4, drugs removed after 12 hours): 0.15 µg/mL; IC50 ([12]; HIV-1 302076, day 7, drugs removed after 12 hours): 0.65 µg/mL
